For assay [1], the target named is Substance-P receptor (Homo sapiens, UniProt P25103). In words: Compound was tested for binding affinity against human NK1 receptor.
For assay [2], the target named is T1, Neuromedin-K receptor (Homo sapiens, UniProt P29371).
T1 sequence (P29371 whole entry): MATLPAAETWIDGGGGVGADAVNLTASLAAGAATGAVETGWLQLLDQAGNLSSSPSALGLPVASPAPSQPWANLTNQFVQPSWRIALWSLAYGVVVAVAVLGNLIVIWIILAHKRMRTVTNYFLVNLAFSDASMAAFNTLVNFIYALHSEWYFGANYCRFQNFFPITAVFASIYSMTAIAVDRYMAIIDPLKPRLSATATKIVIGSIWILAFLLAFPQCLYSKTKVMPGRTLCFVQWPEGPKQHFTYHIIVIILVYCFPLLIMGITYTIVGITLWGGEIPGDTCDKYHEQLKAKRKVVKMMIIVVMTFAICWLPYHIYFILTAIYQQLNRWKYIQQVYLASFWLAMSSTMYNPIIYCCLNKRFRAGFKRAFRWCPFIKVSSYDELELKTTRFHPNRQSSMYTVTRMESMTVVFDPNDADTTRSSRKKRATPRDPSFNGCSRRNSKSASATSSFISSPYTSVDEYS
As to the kind of experiment: Compound was tested for binding affinity against human Tachykinin receptor 3 in CHO cells. The format is cell-based.

Assay [3] has as its system CHO. In words: Inhibition of senktide-evoked increases in intracellular calcium levels in CHO cells measured using the fluorescent indicator Fura 2. The format is functional, Cricetulus griseus. (Calcium flux is commonly read through the fluorescence of an indicator in the cells.)

The results in this text go back to ChEMBL document CHEMBL1128788, “The development of a novel series of non-peptide tachykinin NK3 receptor selective antagonists” (Bioorg Med Chem Lett, 1995).

Chain of Substance-P receptor (P25103 whole entry): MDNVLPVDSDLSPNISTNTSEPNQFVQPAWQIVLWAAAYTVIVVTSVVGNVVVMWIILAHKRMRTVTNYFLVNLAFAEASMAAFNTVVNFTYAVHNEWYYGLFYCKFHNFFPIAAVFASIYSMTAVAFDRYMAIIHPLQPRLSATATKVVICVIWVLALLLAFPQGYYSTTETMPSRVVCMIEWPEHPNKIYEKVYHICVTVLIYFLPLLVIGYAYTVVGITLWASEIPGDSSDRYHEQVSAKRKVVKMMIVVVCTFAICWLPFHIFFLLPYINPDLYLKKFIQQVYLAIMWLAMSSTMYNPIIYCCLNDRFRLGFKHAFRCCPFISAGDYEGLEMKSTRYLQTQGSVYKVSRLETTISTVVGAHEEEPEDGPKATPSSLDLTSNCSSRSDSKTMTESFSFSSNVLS

One may read the IC50 as the concentration that gives 50% inhibition. A lower IC50 goes with greater potency. Consider `CC(NC(=O)[C@@](C)(Cc1cc2ccccc2[nH]1)NC(=O)OC(c1ccccc1)C(C)C)c1ccccc1` (stereo partly drawn), for which the IC50 was determined as 1400 nM in assay [1] and 1200 nM in assay [2].
Consider `CC(C)[C@H](OC(=O)N[C@](C)(Cc1ccccc1F)C(=O)NCCCCCCCNC(N)=O)c1ccccc1`, for which the Ke in assay [3] came out at 2.2 nM.
